Source: article PMC8744458 (Beilstein Journal of Organic Chemistry, 2022)
Values joined by “and” are separate entries in the source; they are usually repeats but may differ in a detail not shown here. Identical values can stand only once. “Also recorded” adds a separate entry of the source. Positions of bridges follow the written chain, without caps; N, C: chain ends. Non-standard residues stand in square brackets, D forms with d. Residues, ends and D or L forms follow the SMILES beside them. No end group written: not given here. *: point of attachment. FITC = O=C1OC2(c3ccc(O)cc3Oc3cc(O)ccc32)c2ccc(NC(=S)*)cc21; S5 = C=CCCC[C@](C)(N)C(=O)O

B1: fStAx-3 (FITC-labelled RCM-stapled axin CBD peptide) 467-481 (peptide)
chain: {FITC}-PESILDEHVQRVLRT
modifications: staple (positions not given here); not fully specified (residues 5, 9, bridges); also: all-hydrocarbon staple at 471/475 (positions 5, 9), stapling residues not named

Columns and labels:
[1] = not given; remark: listed apart in the source
proteinase K = proteinase K (Parengyodontium album, UniProt P06873); experiment: Proteinase K stability assay; assay type: in vitro ADME; details: 0.5 mM peptide, 2.5 µg mL−1 proteinase K, Na2HPO4 buffer 100 mM pH 7.4 (with DMSO from stock), 25 °C, 120 min; samples at 0, 10, 20, 30, 60, 120 min; LC-MS at 280 nm
Chain of proteinase K (P06873 106-384, species assumed): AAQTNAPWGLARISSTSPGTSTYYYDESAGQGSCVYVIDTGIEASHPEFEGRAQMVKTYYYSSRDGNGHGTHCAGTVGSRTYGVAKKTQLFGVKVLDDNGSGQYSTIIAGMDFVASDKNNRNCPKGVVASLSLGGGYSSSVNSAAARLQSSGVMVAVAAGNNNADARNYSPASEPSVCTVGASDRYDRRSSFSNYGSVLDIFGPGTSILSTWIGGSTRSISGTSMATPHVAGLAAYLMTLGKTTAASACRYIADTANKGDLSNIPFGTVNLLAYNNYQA
Description: Proteinase K stability assays
The assay was performed using a modified protocol.[11] A 10 mM peptide stock solution was prepared in a mixture of Na2HPO4 buffer (100 mM, pH 7.4) and DMSO (9:1). The peptide stock solution (25 µL) was diluted with more Na 2HPO4 buffer (450 µL) and thoroughly mixed.
Proteolytic digestion was started by addition of a solution of Proteinase K ( 50 µg mL−1, activity 36.9 mAnsonU mg−1) in Na2HPO4 buffer (25 µL) and incubated for 120 min at 25 °C (resulting assay concentrations 0.5 mM peptide and 2.5 µg mL−1 proteinase K). For LC-MS analysis, a 50 µL sample was diluted with 50 µL of methanol containing 0.1% TFA (v/v) and spun down at […]
Reaction monitoring via LC-MS
Figure S8: Reaction monitoring via LC-MS at λ = 280 nm. A) Linear Peptide P6, samples were taken […]
at t = 0, 10, 20, 30, 60 and 120 min. […]
fragment Ac-ENPEWILDKHVQ-OH eluting at exactly the same retention time than peptide P6 (see mass spectra below at reaction times 0 and 120 min). For fragment assignments, see mass spectra below. B) SMC stapled peptide P5, samples were taken at t = 0, 10, 20, 30, 60 and 120 min. Compared to linear […]

[2] = not given; remark: listed apart in the source
[3] = CD spectroscopy, calculated content of α-helix; assay type: physicochemical; details: c = 100 µM in water, 20 °C, from MRE at 222 nm
Description: Figure 1 Analysis of the secondary structure by circular dichroism: CD spectra of both isomers of stapled peptide P5 (P5.1 and P5.2) and linear references (aAxWt, P6) (c = 100 µM) at 20 °C in water.
Table S1: Calculated contents of α-helix.
Peptide θ222 [mdeg] [θ]222 [deg cm2 dmol-1] a) MRE [deg cm2 dmol-1] b) α-Helix content [%]
a) [θ] = θ / (c * 10 * l) with c = 10-4 mol/L, l = 0.1 cm; b) MRE = [θ] / n; c) in brackets literature values for
FITC-labelled analogues, ref: Grossmann, T. N.; Yeh, J. T.-H.; Bowman, B. R.; Chu, Q.; Moellering, R.
For TFE titration experiments, peptide solutions in a mixture of TFE/H2O 4:1 were additionally
Reference peptides (linear and RCM stapled peptides)
Figure S2: CD spectra of reference peptides P6, aAxWt and aStAx-3, c = 100 µM in H2O. […]

β-catenin [4] = target: T1, β-catenin (Homo sapiens, UniProt P35222); experiment: Competitive fluorescence polarisation assay; assay type: binding; details: unlabelled peptide titrated against tracer peptide fStAx-3 (10 nM final), β-catenin 3 µM final; FP buffer 1× PBS with 0.05% Tween20, pH 7.4; 4 °C, 1 h; biological duplicate and technical triplicate
T1 construct: expression and purification of full-length β-catenin; His tag with TEV site (inferred from the pET28a-TEV vector name and Ni-NTA purification); host or cells: E. coli BL21(DE3)
T1 sequence (P35222 1-781): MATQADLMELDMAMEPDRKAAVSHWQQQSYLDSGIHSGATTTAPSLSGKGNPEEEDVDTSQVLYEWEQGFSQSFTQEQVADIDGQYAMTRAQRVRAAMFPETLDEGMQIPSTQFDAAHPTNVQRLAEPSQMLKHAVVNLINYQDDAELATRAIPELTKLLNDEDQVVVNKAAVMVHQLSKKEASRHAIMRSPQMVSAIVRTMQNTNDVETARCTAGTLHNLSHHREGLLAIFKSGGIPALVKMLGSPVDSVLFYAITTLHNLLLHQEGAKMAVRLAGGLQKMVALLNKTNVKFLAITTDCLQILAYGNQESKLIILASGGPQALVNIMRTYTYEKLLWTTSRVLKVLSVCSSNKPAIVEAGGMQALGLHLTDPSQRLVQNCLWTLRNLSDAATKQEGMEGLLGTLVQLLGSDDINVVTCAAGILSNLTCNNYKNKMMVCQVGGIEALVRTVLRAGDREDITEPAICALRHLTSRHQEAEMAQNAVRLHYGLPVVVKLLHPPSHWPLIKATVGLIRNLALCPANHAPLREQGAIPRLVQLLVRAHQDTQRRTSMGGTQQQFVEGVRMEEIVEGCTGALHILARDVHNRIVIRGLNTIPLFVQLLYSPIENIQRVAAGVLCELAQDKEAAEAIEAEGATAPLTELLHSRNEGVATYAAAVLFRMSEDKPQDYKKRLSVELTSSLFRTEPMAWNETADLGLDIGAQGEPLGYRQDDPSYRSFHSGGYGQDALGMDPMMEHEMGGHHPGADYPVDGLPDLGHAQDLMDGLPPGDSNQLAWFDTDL
Description: Figure S6: Direct titration curve of fluorescence polarisation assay of FITC-labelled AxWt (fAxWt) and FITC-labelled RCM-stapled peptide StAx-3 (fStAx-3). Dissociation constants were determined to be Kd […]
competitive fluorescence polarisation assay (see below).
Competitive fluorescence polarisation assay
A stock solution of the FITC-labelled peptide in DMSO (20 µM) was diluted to 40 nM in FP buffer (1× PBS with 0.05% Tween20, pH 7.4). A β-Catenin stock solution with a concentration of 6 µM was prepared in FP buffer. Stock solutions of non-labelled peptides (1 mM) in DMSO were serially diluted (2.5-fold) in FP buffer. […]
Fluorescence polarisation was measured using a Tecan Spark 10M with λex = 485/20 nm and […]. Each sample was measured as biological duplicate and technical triplicate. […]
The equation used for Kd determination of unlabeled peptides is shown below with r as anisotropy, r0 as anisotropy of the free peptide, rb as anisotropy of the β-Catenin:FITC-labelled tracer peptide, Kd2 as dissociation constant between the non-labelled ligand and the protein, [L]t as total non-labelled ligand concentration and [L]st as total FITC-labelled peptide concentration. Kd1 is the apparent Kd that was determined in direct fluorescence polari sation assays for the labelled-tracer peptide. […]
fluorescence polarisation assay). […]

β-catenin [5] = target: T2, β-catenin (Homo sapiens, UniProt P35222); experiment: competitive fluorescence polarisation
T2 chain: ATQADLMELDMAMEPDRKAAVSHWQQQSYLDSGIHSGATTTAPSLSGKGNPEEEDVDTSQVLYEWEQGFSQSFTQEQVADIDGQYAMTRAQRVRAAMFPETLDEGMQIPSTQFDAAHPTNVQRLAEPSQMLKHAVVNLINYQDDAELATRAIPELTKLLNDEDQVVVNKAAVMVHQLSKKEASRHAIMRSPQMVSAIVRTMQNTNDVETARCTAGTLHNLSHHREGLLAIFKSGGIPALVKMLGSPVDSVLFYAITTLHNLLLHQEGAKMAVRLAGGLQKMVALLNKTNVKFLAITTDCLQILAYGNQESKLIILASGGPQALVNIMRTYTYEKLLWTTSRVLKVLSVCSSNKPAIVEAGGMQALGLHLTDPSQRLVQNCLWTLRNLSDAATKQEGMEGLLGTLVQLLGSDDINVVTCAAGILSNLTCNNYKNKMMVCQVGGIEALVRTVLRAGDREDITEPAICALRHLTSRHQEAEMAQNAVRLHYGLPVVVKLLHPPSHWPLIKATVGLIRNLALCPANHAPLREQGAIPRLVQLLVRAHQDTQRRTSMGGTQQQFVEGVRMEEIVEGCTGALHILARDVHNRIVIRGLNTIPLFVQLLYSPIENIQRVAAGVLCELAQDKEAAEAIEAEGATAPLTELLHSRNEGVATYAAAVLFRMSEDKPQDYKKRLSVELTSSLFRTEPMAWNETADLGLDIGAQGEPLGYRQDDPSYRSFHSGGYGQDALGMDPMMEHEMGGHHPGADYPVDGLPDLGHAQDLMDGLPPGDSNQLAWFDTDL

β-catenin [6] = target: T2, β-catenin; experiment: direct fluorescence polarisation

Row | Molecule | θ222 | MRE (deg cm2 dmol-1) [1] | Stability against proteinase K digestion (cleavage sites/fragments) (proteinase K) | [θ]222 (deg cm2 dmol-1) [2] | α-Helix content calculated from CD spectra [3] | Kd (β-catenin [4]) | Kd (β-catenin [5]) | Kd (β-catenin [6])
1 | CC[C@H](C)[C@@H]1NC(=O)[C@@H](NC(=O)[C@H](CCC(=O)O)NC(=O)[C@@H]2CCCN2C(=O)[C@H](CC(N)=O)NC(=O)[C@H](CCC(=O)O)NC(C)=O)Cc2c[nH]c3c(cccc23)-c2ccc(cc2)CCC(=O)NCCCC[C@@H](C(=O)N[C@@H](Cc2c[nH]cn2)C(=O)N[C@H](C(=O)N[C@@H](CCC(N)=O)C(=O)N[C@@H](CCCNC(=N)N)C(=O)N[C@H](C(=O)N[C@@H](CCSC)C(N)=O)C(C)C)C(C)C)NC(=O)[C@H](CC(=O)O)NC(=O)[C@H](CC(C)C)NC1=O [P5] | -7.04 mdeg and -10 mdeg | -4690 and -6680 | two of three cleaving sites are blocked; also recorded: allows access to only one of the three cleavage sites; also recorded: higher stability | -70400 and -100000 | – | – | – | –
2 | Ac-ENPEWILDKHVQRVM-NH2 [P6] | -5.94 mdeg | -3960 | degraded in three fragments; also recorded: cleaved within a period of 120 min to give three fragments | -59400 | 13% | 1240 ± 162 nM | – | –
3 | CC[C@H](C)[C@@H]1NC(=O)[C@@](C)(NC(=O)[C@H](CCC(=O)O)NC(=O)[C@@H]2CCCN2C(=O)[C@H](CC(N)=O)NC(=O)[C@H](CCC(=O)O)NC(C)=O)CCCC=CCCC[C@@](C)(C(=O)N[C@@H](Cc2c[nH]cn2)C(=O)N[C@H](C(=O)N[C@@H](CCC(N)=O)C(=O)N[C@@H](CCCNC(=N)N)C(=O)N[C@H](C(=O)N[C@@H](CCSC)C(N)=O)C(C)C)C(C)C)NC(=O)[C@H](CC(=O)O)NC(=O)[C@H](CC(C)C)NC1=O [aStAx-3, reference compound] (Ac-ENPE[S5]ILD[S5]HVQRVM-NH2; staple 5-9) | -16.2 mdeg | -10800 | – | -162000 | – | 49 ± 26 nM | – | –
4 | PESILDEHVQRVLRT [aAxWt (axin CBD peptide) 467-481] | – | – | – | – | – | – | 1450 nM | –
5 | B1 | – | – | – | – | – | – | – | 63 nM
